# Results as given in PubChem BioAssay (NCI).
#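 How tested: cells in 96-well plates exposed to compound for 48 hours at five concentrations. TGI is the concentration that stops growth completely.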
# Tests used:
# Experiment in all cases: NCI tumour cell line growth inhibition, 48 h
# [1] = system: K-562 leukemia
# [2] = system: LOX IMVI melanoma
# [3] = system: MOLT-4 leukemia
# [4] = system: OVCAR-5 ovarian
# [5] = system: P388 leukemia
# [6] = system: RPMI-8226 leukemia
# [7] = system: SF-295 CNS
# [8] = system: SK-OV-3 ovarian
# [9] = system: ACHN renal
# [10] = system: BT-549 breast
# [11] = system: HS 578T breast
# [12] = system: M14 melanoma
# [13] = system: MDA-MB-231 breast
# [14] = system: MDA-MB-435
# [15] = system: PC-3 prostate
# [16] = system: SR leukemia
# [17] = system: TK-10 renal
# [18] = system: MDA-N
# [19] = system: T-47D breast
# [20] = system: DU-145 prostate
compound,measurement,setting,value
CC(C(=O)O)c1cnn(-c2ccccc2)c1-n1cccc1 (stereo unspecified),TGI,[1],> 100 µM
same,TGI,[2],> 100 µM
same,TGI,[3],> 100 µM
same,TGI,[4],> 100 µM
same,TGI,[5],> 100 µM
same,TGI,[6],> 100 µM
same,TGI,[7],> 100 µM
same,TGI,[8],> 100 µM
Cc1cc(NS(=O)(=O)c2ccc(N=Nc3c(O)c(C(=O)O)cc4ccccc34)cc2)nc(C)n1,TGI,[9],> 100 µM
same,TGI,[10],> 100 µM
same,TGI,[11],> 100 µM
same,TGI,[1],> 100 µM
same,TGI,[12],> 100 µM
same,TGI,[13],> 100 µM
same,TGI,[14],> 100 µM
same,TGI,[3],> 100 µM
same,TGI,[4],> 100 µM
same,TGI,[15],> 100 µM
same,TGI,[6],> 100 µM
same,TGI,[7],> 100 µM
same,TGI,[8],> 100 µM
same,TGI,[16],> 100 µM
same,TGI,[17],> 100 µM
CN(CCCNc1ccc2ncn3c4ccccc4c(=O)c1c23)CCCN1C(=O)c2cccc3cc([N+](=O)[O-])cc(c23)C1=O,TGI,[9],1.21 µM
same,TGI,[10],2.01 µM
same,TGI,[11],2.42 µM
same,TGI,[1],0.398 µM
same,TGI,[12],1.69 µM
same,TGI,[13],1.26 µM
same,TGI,[14],2.13 µM
same,TGI,[18],2.01 µM
same,TGI,[3],0.193 µM
same,TGI,[4],2.35 µM
same,TGI,[7],1.42 µM
same,TGI,[8],2.69 µM
same,TGI,[19],3.42 µM
same,TGI,[17],0.156 µM
CC[C@]12C=CCN3CC[C@@]4(c5ccc(OC)cc5N(C)[C@H]4[C@@](O)(C(=O)OC)[C@@H]1OC(C)=O)[C@@H]32,TGI,[1],> 200 µM
same,TGI,[2],> 200 µM
same,TGI,[3],> 176 µM
same,TGI,[4],> 200 µM
same,TGI,[6],> 200 µM
same,TGI,[7],> 200 µM
same,TGI,[8],> 200 µM
C=CCNc1ccc(C)cc1,TGI,[9],> 100 µM
same,TGI,[20],> 100 µM
same,TGI,[11],> 100 µM
same,TGI,[1],> 100 µM
same,TGI,[2],> 100 µM
same,TGI,[12],> 100 µM
same,TGI,[13],> 100 µM
same,TGI,[14],> 100 µM
same,TGI,[18],> 100 µM
same,TGI,[3],> 100 µM
same,TGI,[15],> 100 µM
same,TGI,[7],> 100 µM
same,TGI,[16],> 100 µM
same,TGI,[19],> 100 µM
same,TGI,[17],> 100 µM
O=c1c2ccccc2nnn1-c1n[nH]c2ccccc12,TGI,[9],> 100 µM
same,TGI,[10],> 100 µM
same,TGI,[20],> 100 µM
same,TGI,[11],> 100 µM
same,TGI,[12],> 100 µM
same,TGI,[13],> 100 µM
same,TGI,[14],> 100 µM
same,TGI,[4],> 100 µM
same,TGI,[15],> 100 µM
same,TGI,[6],> 100 µM
same,TGI,[7],> 100 µM
same,TGI,[19],> 100 µM
same,TGI,[17],> 100 µM
COC(=O)C1(c2ccc(N(C)C)cc2OC)CCCN(C(=O)Oc2ccccc2[N+](=O)[O-])CCc2c1[nH]c1ccccc21 (stereo unspecified),TGI,[10],> 100 µM
same,TGI,[20],> 100 µM
same,TGI,[11],> 100 µM
same,TGI,[1],> 100 µM
same,TGI,[2],> 100 µM
same,TGI,[12],> 100 µM
same,TGI,[13],> 100 µM
same,TGI,[14],> 100 µM
same,TGI,[18],> 100 µM
same,TGI,[3],> 100 µM
same,TGI,[4],> 100 µM
same,TGI,[15],> 100 µM
same,TGI,[7],> 100 µM
same,TGI,[8],> 100 µM
same,TGI,[16],> 100 µM
same,TGI,[19],> 100 µM
same,TGI,[17],> 100 µM
CC(=O)OC[C@H]1[C@@H]2C(CC[C@]13CO3)OC(=O)CC(C)[C@]2(C)CCc1ccoc1 (stereo partly specified),TGI,[9],> 100 µM
same,TGI,[10],> 100 µM
same,TGI,[20],> 100 µM
same,TGI,[11],> 100 µM
same,TGI,[1],> 100 µM
same,TGI,[2],> 100 µM
same,TGI,[12],> 100 µM
same,TGI,[13],> 100 µM
same,TGI,[14],> 100 µM
same,TGI,[18],> 100 µM
same,TGI,[3],> 100 µM
same,TGI,[4],> 100 µM
same,TGI,[15],> 100 µM
same,TGI,[7],> 100 µM
same,TGI,[8],> 100 µM
same,TGI,[16],> 100 µM
same,TGI,[19],> 100 µM
same,TGI,[17],> 100 µM
C[N+](C)(N)CCC[N+](C)(C)N,TGI,[9],> 100 µM
same,TGI,[10],> 100 µM
same,TGI,[20],> 100 µM
same,TGI,[11],> 100 µM
same,TGI,[1],> 100 µM
same,TGI,[2],> 100 µM
same,TGI,[12],> 100 µM
same,TGI,[13],> 100 µM
same,TGI,[14],> 100 µM
same,TGI,[18],> 100 µM
same,TGI,[3],> 100 µM
same,TGI,[4],> 100 µM
same,TGI,[15],> 100 µM
same,TGI,[6],> 100 µM
same,TGI,[7],> 100 µM
same,TGI,[8],> 100 µM
same,TGI,[16],> 100 µM
same,TGI,[19],> 100 µM
same,TGI,[17],> 100 µM
CC(C)CCN=c1cc2n(-c3ccc(Cl)cc3)c3ccccc3nc-2cc1Nc1ccc(Cl)cc1,TGI,[1],26.4 µM
same,TGI,[2],8.03 µM
same,TGI,[3],> 51.8 µM
same,TGI,[4],35.3 µM
same,TGI,[5],11.7 µM
same,TGI,[6],5.74 µM
same,TGI,[7],44.2 µM
same,TGI,[8],70.2 µM
Oc1ccc2ccccc2c1N=Nc1ccc(F)cc1,TGI,[9],> 100 µM
same,TGI,[1],> 100 µM
same,TGI,[2],> 100 µM
same,TGI,[12],> 100 µM
same,TGI,[3],> 100 µM
same,TGI,[4],> 100 µM
same,TGI,[6],> 100 µM
same,TGI,[7],> 100 µM
same,TGI,[8],> 100 µM
same,TGI,[16],> 100 µM
same,TGI,[17],> 100 µM
O=C(NCCCNC(=O)c1ccc2cc(O)c(O)cc2c1)c1ccc2cc(O)c(O)cc2c1,TGI,[9],> 100 µM
same,TGI,[10],> 100 µM
same,TGI,[20],82.2 µM
same,TGI,[1],> 100 µM
same,TGI,[2],67.4 µM
same,TGI,[12],> 100 µM
same,TGI,[14],> 100 µM
same,TGI,[18],> 100 µM
same,TGI,[3],> 100 µM
same,TGI,[4],> 100 µM
same,TGI,[15],> 100 µM
same,TGI,[6],> 100 µM
same,TGI,[16],> 100 µM
same,TGI,[19],90.6 µM
same,TGI,[17],> 100 µM
CC[N+](C)(CC)Cc1ccccc1[N+](=O)[O-],TGI,[9],> 100 µM
same,TGI,[10],> 100 µM
same,TGI,[20],> 100 µM
same,TGI,[11],> 100 µM
same,TGI,[1],> 100 µM
same,TGI,[2],> 100 µM
same,TGI,[12],> 100 µM
same,TGI,[13],> 100 µM
same,TGI,[14],> 100 µM
same,TGI,[18],> 100 µM
same,TGI,[3],> 100 µM
same,TGI,[4],> 100 µM
same,TGI,[15],> 100 µM
same,TGI,[6],> 100 µM
same,TGI,[7],> 100 µM
same,TGI,[8],> 100 µM
same,TGI,[16],> 100 µM
same,TGI,[19],> 100 µM
same,TGI,[17],> 100 µM
COc1ccc2c(c1)CCCc1cn[nH]c1-2,TGI,[1],> 100 µM
same,TGI,[2],> 100 µM
same,TGI,[3],> 100 µM
same,TGI,[4],> 100 µM
same,TGI,[5],> 100 µM
same,TGI,[7],> 100 µM
same,TGI,[8],> 100 µM
